The target of the experiment is T1, cloned human dopamine D3 receptors (Homo sapiens, UniProt P35462).
T1 construct: expressed in transfected cells; membrane homogenate
Briefly: [N-Methyl-3H]Spiroperidol binding to cloned human dopamine D3 receptors (Protocol 1). The method in brief:
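Membranes from CHO cells stably expressing cloned human D3 receptor were used for [N-methyl-3H]spiroperidol (60-90 Ci/mmol) binding. Assay buffer was 0.05 M Tris HCl pH 7.7 with 120 mM NaCl, 5 mM KCl, 2 mM CaCl2 and 1 mM MgCl2, optionally 0.1% ascorbic acid; total ligand concentration calculated from added CPM.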

Setting [1] is: the 14th table, read-out: D3 Ki.
Where [2] appears, read: the 13th table, unit inferred, read-out: D3Ki.
[3] abbreviates: the 15th table, read-out: D3 Ki.

The results in this text go back to patent publication US7550469B2, “Heterocyclic amide derivatives and their use as dopamine D3 receptor ligands” (Aventis Pharmaceuticals Inc., priority 2001, dated 2009).

Like-named read-outs stand apart in the source and are kept apart here.

T1 sequence (P35462 whole entry): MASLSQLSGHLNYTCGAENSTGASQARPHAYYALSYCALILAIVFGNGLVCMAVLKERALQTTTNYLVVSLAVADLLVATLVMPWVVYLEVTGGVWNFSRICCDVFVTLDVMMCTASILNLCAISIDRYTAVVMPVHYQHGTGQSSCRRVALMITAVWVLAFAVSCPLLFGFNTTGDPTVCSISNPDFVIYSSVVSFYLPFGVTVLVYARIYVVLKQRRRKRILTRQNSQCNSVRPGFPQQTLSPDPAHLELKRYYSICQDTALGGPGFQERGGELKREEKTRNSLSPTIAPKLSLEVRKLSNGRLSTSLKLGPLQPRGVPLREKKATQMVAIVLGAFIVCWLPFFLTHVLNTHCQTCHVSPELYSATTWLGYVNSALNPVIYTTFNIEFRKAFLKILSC

Consider `CCn1cc(C(=O)N[C@@H](CO)CCCN2CCN(c3csc4cc(C(F)(F)F)ccc34)CC2)c(=O)c2ccc(C)nc21` [compound 815680], for which the Ki (Table 2, read-out: D3K1) turned out to be 197 nM; the Ki (read-out: D3K1) is 197 nM; the Ki under setting [1] amounted to 197 nM.
For `CSc1ncccc1C(=O)N[C@@H](CO)CCCN1CCN(c2csc3cc(C(F)(F)F)ccc23)CC1` [compound 815681], the Ki reads like this: (Table 2, read-out: D3K1) 261 nM; (read-out: D3K1) 261 nM; under setting [1], 261 nM.
On to `O=C(NC(CO)CCCN1CCN(c2csc3cc(C(F)(F)F)ccc23)CC1)c1cc2ccccc2s1` (stereo not drawn) [compound 815684], for which the Ki runs as follows: (Table 2, read-out: D3K1) 208 nM; (read-out: D3K1) 208 nM; under setting [1], 208 nM.
As to `O=C(NC(CO)CCCN1CCN(c2csc3cc(C(F)(F)F)ccc23)CC1)c1ccc2c(c1)S(=O)(=O)c1ccccc1C2=O` (stereo not drawn) [compound 815685], the Ki came out at 186 nM (Table 2, read-out: D3K1); 186 nM (read-out: D3K1); 186 nM under setting [1].
For the molecule `O=C(NC(CO)CCCN1CCN(c2csc3cc(C(F)(F)F)ccc23)CC1)c1cc2ccc(Cl)cc2s1` (stereo not drawn) [compound 815686], the Ki (Table 2, read-out: D3K1) was determined as 275 nM; the Ki (read-out: D3K1) was 275 nM; the Ki under setting [1] came to 275 nM.
Consider `O=C(NC(CO)CCCN1CCN(c2csc3cc(C(F)(F)F)ccc23)CC1)c1ccccc1C(F)(F)F` (stereo not drawn) [compound 815688], for which the Ki was determined as 190 nM (Table 2, read-out: D3K1); 190 nM (read-out: D3K1); 190 nM under setting [1].
On to `COc1ccc(C(=O)NC(CO)CCCN2CCN(c3csc4cc(C(F)(F)F)ccc34)CC2)cc1OC` (stereo not drawn) [compound 815689], for which the Ki reads like this: (Table 2, read-out: D3K1) 225 nM; (read-out: D3K1) 225 nM; under setting [1], 225 nM.
`O=C(NC(CO)CCCN1CCN(c2csc3cc(C(F)(F)F)ccc23)CC1)c1ccc(Cl)cc1` (stereo not drawn) [compound 815690]: the Ki is 245 nM (Table 2, read-out: D3K1); 245 nM (read-out: D3K1); 245 nM under setting [1].
`CC(=O)Nc1ccc(C(=O)N[C@H](CO)CCCN2CCN(c3csc4cc(C(F)(F)F)ccc34)CC2)cc1` [compound 815691]: the Ki is, setting by setting: (Table 2, read-out: D3K1) 241 nM; (read-out: D3K1) 241 nM; under setting [1], 241 nM.
`COc1ccc(C(=O)N[C@H](CO)CCCN2CCN(c3csc4cc(C(F)(F)F)ccc34)CC2)cc1` [compound 815692]: the Ki reads like this: (Table 2, read-out: D3K1) 191 nM; (read-out: D3K1) 191 nM; under setting [1], 191 nM.
Turning to `O=C(N[C@H](CO)CCCN1CCN(c2csc3cc(C(F)(F)F)ccc23)CC1)c1ccc(-c2ccccc2)cc1` [compound 815694], the Ki by setting is: (Table 2, read-out: D3K1) 197 nM; (read-out: D3K1) 197 nM; under setting [1], 197 nM.
On to `Cc1ccc(C(=O)N[C@H](CO)CCCN2CCN(c3csc4cc(C(F)(F)F)ccc34)CC2)cc1` [compound 815695], for which the Ki by setting is: (Table 2, read-out: D3K1) 198 nM; (read-out: D3K1) 198 nM; under setting [1], 198 nM.
For the molecule `O=C(N[C@H](CO)CCCN1CCN(c2csc3cc(C(F)(F)F)ccc23)CC1)c1ccco1` [compound 815696], the Ki turned out to be 871 nM (Table 2, read-out: D3K1); 871 nM (read-out: D3K1); 871 nM under setting [1].
For `O=C(N[C@H](CO)CCCN1CCN(c2csc3cc(C(F)(F)F)ccc23)CC1)c1ccc2ccccc2c1` [compound 815697], the Ki is 294 nM (Table 2, read-out: D3K1); 294 nM (read-out: D3K1); 294 nM under setting [1].
Consider `O=C(N[C@H](CO)CCCN1CCN(c2csc3cc(C(F)(F)F)ccc23)CC1)c1cc2ccccc2[nH]1` [compound 815698], for which the Ki (Table 2, read-out: D3K1) amounted to 329 nM; the Ki (read-out: D3K1) worked out at 329 nM; the Ki under setting [1] was 329 nM.
`O=C(N[C@H](CO)CCCN1CCN(c2csc3cc(C(F)(F)F)ccc23)CC1)c1ccc2[nH]ccc2c1` [compound 815700]: the Ki reads like this: (Table 2, read-out: D3K1) 128 nM; (read-out: D3K1) 128 nM; under setting [1], 128 nM.
With `O=C(N[C@H](CO)CCCN1CCN(c2csc3cc(C(F)(F)F)ccc23)CC1)c1cnccn1` [compound 815702], the Ki is, setting by setting: (Table 2, read-out: D3K1) 439 nM; (read-out: D3K1) 439 nM; under setting [1], 439 nM.
In the case of `CCn1cc(C(=O)NC(CO)CCCN2CCN(c3csc4cc(C(F)(F)F)ccc34)CC2)c(=O)c2ccc(C)nc21` (stereo not drawn) [compound 815704], the Ki (Table 2, read-out: D3K1) was 137 nM; the Ki (read-out: D3K1) came out at 137 nM; the Ki under setting [1] came to 137 nM.
Take `O=C(N[C@H](CO)CCCN1CCN(c2csc3cc(C(F)(F)F)ccc23)CC1)c1cc2ccccc2s1` [compound 815708]: the Ki is, setting by setting: (Table 2, read-out: D3K1) 180 nM; (read-out: D3K1) 180 nM; under setting [1], 180 nM.
Take `O=C(N[C@H](CO)CCCN1CCN(c2csc3cc(C(F)(F)F)ccc23)CC1)c1ccc2c(c1)S(=O)(=O)c1ccccc1C2=O` [compound 815709]: the Ki (Table 2, read-out: D3K1) was found to be 124 nM; the Ki (read-out: D3K1) came to 124 nM; the Ki under setting [1] is 124 nM.
Regarding `O=C(N[C@H](CO)CCCN1CCN(c2csc3cc(C(F)(F)F)ccc23)CC1)c1cc2ccc(Cl)cc2s1` [compound 815710], the Ki by setting is: (Table 2, read-out: D3K1) 210 nM; (read-out: D3K1) 210 nM; under setting [1], 210 nM.
For the molecule `O=C(NCCCCN1CCN(c2c(-c3ccccc3)sc3cc(F)ccc23)CC1)c1cccc(F)c1` [compound 815870], the Ki was 28.4 nM (Table 2, read-out: D3K1) and 28.4 nM under setting [1].
Consider `O=C(NCCCCN1CCN(c2c(-c3ccccc3)sc3cc(F)ccc23)CC1)c1ccc(C(F)(F)F)cc1` [compound 815871], for which the Ki stood at 796 nM (Table 2, read-out: D3K1) and 796 nM under setting [1].
For `O=C(NCCCCN1CCN(c2c(-c3ccccc3)sc3cc(F)ccc23)CC1)c1ccc(-c2ccccc2)cc1` [compound 815872], the Ki (Table 2, read-out: D3K1) stood at 567 nM.
Same read-out and setting: as for `O=C(NCCCCN1CCN(c2c(-c3ccccc3)sc3cc(F)ccc23)CC1)c1cc2ccccc2s1` [compound 815873], the figure is 263 nM; as for `O=C(NCCCCN1CCN(c2c(-c3ccccc3)sc3cc(F)ccc23)CC1)c1ccc(Br)cc1` [compound 815874], 282 nM; as for `O=C(NCCCCN1CCN(c2c(-c3ccccc3)sc3cc(F)ccc23)CC1)c1cccs1` [compound 815879], 292 nM.
For `O=C(NCCCCN1CCN(c2c(-c3ccccc3)sc3cc(F)ccc23)CC1)c1ccc(Cl)cc1` [compound 815880], the Ki (Table 2, read-out: D3K1) was found to be 837 nM.
The same measure, in the same setting: as for `O=C(NCCCCN1CCN(c2c(-c3ccccc3)sc3cc(F)ccc23)CC1)c1ccc(F)cc1` [compound 815883], the figure is 339 nM; as for `O=C(Cc1cccs1)NCCCCN1CCN(c2c(-c3ccccc3)sc3cc(F)ccc23)CC1` [compound 815884], 296 nM.
`O=C(NCCCCCN1CCC(c2noc3ccsc23)CC1)c1cc2ccccc2s1` [compound 816196]: the Ki under setting [2] was 161 nM.
Still for that read-out and setting: as for `O=C(NCCCCCN1CCC(c2noc3ccsc23)CC1)c1ccc2ccccc2c1` [compound 816197], the figure is 116 nM; as for `CCOc1ccc(C(=O)NCCCCCN2CCC(c3noc4ccsc34)CC2)cc1` [compound 816198], 110 nM.
Still for that read-out and setting: the figure for `O=C(NCCCCCN1CCC(c2noc3ccsc23)CC1)c1ccc(Cl)cc1` [compound 816199] is 157 nM.
As to `CCCCCCC(=O)NCCCCCN1CCC(c2noc3ccsc23)CC1` [compound 816202], under setting [2], the Ki worked out at 326 nM.
Regarding `C=CCCCCCCC(=O)NCCCCCN1CCC(c2noc3ccsc23)CC1` [compound 816203], the Ki under setting [2] was 94.1 nM.
On the same count and under the same terms, the figure for `O=C(NCCCCCN1CCC(c2noc3ccsc23)CC1)C(Cl)c1ccccc1` (stereo not drawn) [compound 816204] is 218 nM; for `O=C(NCCCCCN1CCC(c2noc3ccsc23)CC1)C1CCCC1` [compound 816205] it is 455 nM.
As to `O=C(Cc1cc2ccccc2s1)NCCCCCN1CCC(c2noc3ccsc23)CC1` [compound 816206], the Ki under setting [2] worked out at 505 nM.
The same measure, in the same setting: as for `O=C(NCCCCCN1CCC(c2noc3ccsc23)CC1)c1ccccc1[N+](=O)[O-]` [compound 816207], the figure is 182 nM; as for `O=C(NCCCCCN1CCC(c2noc3ccsc23)CC1)c1ccc(-c2ccccc2)cc1` [compound 816208], 84.9 nM; as for `O=C(NCCCCCN1CCC(c2noc3ccsc23)CC1)c1ccccc1C(F)(F)F` [compound 816211], 224 nM.
For the molecule `O=C(NCCCCCN1CCC(c2noc3ccsc23)CC1)c1ccccc1` [compound 816212], under setting [2], the Ki amounted to 570 nM.
Take `O=C(NCCCCCN1CCC(c2noc3ccsc23)CC1)c1cccc(Cl)c1` [compound 816214]: under setting [2], the Ki came to 264 nM.
The same measure, in the same setting: the figure for `COc1ccc(C(=O)NCCCCCN2CCC(c3noc4ccsc34)CC2)cc1OC` [compound 816215] is 272 nM; for `O=C(NCCCCCN1CCC(c2noc3ccsc23)CC1)c1ccc(F)cc1` [compound 816217] it is 364 nM.
The same measure, in the same setting: as for `CCCCc1ccc(C(=O)NCCCCCN2CCC(c3noc4ccsc34)CC2)cc1` [compound 816218], the figure is 316 nM; as for `CCCCCCc1ccc(C(=O)NCCCCCN2CCC(c3noc4ccsc34)CC2)cc1` [compound 816219], 132 nM.
Consider `O=C(NCCCCCCN1CCN(c2csc3cc(C(F)(F)F)ccc23)CC1)c1cc2ccccc2[nH]1` [compound 816315], for which the Ki is, setting by setting: (Table 2, read-out: D3K1) 3.7 nM; (read-out: D3K1) 3.7 nM; under setting [1], 3.7 nM.
`O=C(NCCCCCCN1CCN(c2csc3cc(C(F)(F)F)ccc23)CC1)c1ccc2[nH]ccc2c1` [compound 816316]: the Ki is, setting by setting: (Table 2, read-out: D3K1) 2.7 nM; (read-out: D3K1) 2.7 nM; under setting [1], 2.7 nM.
For the molecule `O=C(NCCCCN1C2CCC1CC(c1noc3cc(F)ccc13)C2)c1cccs1` (stereo not drawn) [compound 816323], the Ki under setting [3] stood at 832 nM.
Same read-out and setting: as for `CCCCOc1ccc(C(=O)NCCCCN2C3CCC2CC(c2noc4cc(F)ccc24)C3)cc1` (stereo not drawn) [compound 816325], the figure is 58.3 nM.
Still for that read-out and setting: the figure for `O=C(NCCCCN1C2CCC1CC(c1noc3cc(F)ccc13)C2)c1ccc(C(F)(F)F)cc1` (stereo not drawn) [compound 816326] is 223 nM; for `O=C(Cc1ccccc1)NCCCCN1C2CCC1CC(c1noc3cc(F)ccc13)C2` (stereo not drawn) [compound 816327] it is 392 nM.
